From paper doi:10.1101/2020.07.11.198341v1 (bioRxiv, 2020)

System: male C57Bl6J mice
Test: Metabolic efficiency
Type: in vivo
Conditions: insulin 20 nmol/kg daily i.p., n=8

insulin was tested, and the nocturnal chow intake was “slight decrease”.
